{
  "source": "patent US20200000775A1",
  "about": "“ATTENUATION OF NEUROPATHIC PAIN AFTER SPINAL CORD INJURY” (University of Kentucky Research Foundation, priority 2018, published 2020)",
  "key": {"[1]": {"conditions": "rats, pigs, sheep, dogs or humans; cited from earlier work"}, "[2]": {"conditions": "cited from earlier work"}, "[3]": {"test_system": "endosomal EEA1-NR1", "assay": "Immunofluorescence of endosomal EEA1-NMDAR1 (NR1) dual signal in spinal dorsal horn after excitotoxic SCI", "format": "in vivo, rat", "conditions": "post-treatment, 28 days post-excitotoxic injury; vs vehicle, p<0.001", "source_text": "(§1) Twenty-four male SD rats were randomly assigned to three groups: (A) FluBZ treatment plus intraspinal injection of QUIS (n=10); (B) vehicle treatment plus intraspinal injection of QUIS (n=10); and (C) Sham operation (intraspinal injection of saline, n=4). Assessment of excessive grooming behavior was used to evaluate the effects of FluBZ or vehicle on the development of the spontaneous pain behavior following excitotoxic SCI. The survival time of animals consisted of a period of 4 weeks or until tissue damage progressed beyond the superficial layers of skin, at which time (<4 weeks) animals were euthanized. FluBZ (10 mg/kg/day) or vehicle was intraperitoneally injected once daily for a period of 7 days post-injection of QUIS. The FluBZ or vehicle treatment began at 3 h post-QUIS injection. FluBZ (Sigma) was dissolved in 0.9% saline plus 0.01% Tween 80 (Vehicle). […]\n(§2) The stereological analysis of image data within dorsal horn of spinal cord in sham or QUIS-injured animals with treatment of FluBZ or vehicle will be performed using NIS-Elements AR program. Serial double-labeled immunofluorescent signal images of spinal cord sections at lesion epicenter and 2 mm rostral and caudal to the lesion site were analyzed using methods of Binary Layers and Automated Measurement Results. […]"}, "[4]": {"test_system": "α-tubulin N-acetyltransferase ATAT1/MEC-17", "assay": "Immunofluorescence of α-tubulin acetyltransferase MEC-17 in spinal dorsal horn after excitotoxic SCI", "format": "in vivo, rat", "conditions": "IP for 7 days from 3 h post-QUIS; lesion site, 28 days after injury; vs vehicle, p<0.01", "source_text": "as §1, §2"}, "[5]": {"test_system": "acetylated α-tubulin", "assay": "Immunofluorescence of acetylated α-tubulin in spinal dorsal horn after excitotoxic SCI", "format": "in vivo, rat", "conditions": "IP for 7 days from 3 h post-QUIS; lesion site, 28 days after injury; vs vehicle, p<0.001", "source_text": "as §1, §2"}, "[6]": {"test_system": "endosomal EEA1-pERK1/2", "assay": "Immunofluorescence of endosomal EEA1-pERK1/2 dual signal in spinal dorsal horn after excitotoxic SCI", "format": "in vivo, rat", "conditions": "IP treatment, 28 days post-injury; vs vehicle, p<0.001", "source_text": "as §1, §2"}, "[7]": {"test_system": "rat excitotoxic SCI pain model", "assay": "Spontaneous pain-related excessive grooming behavior after excitotoxic SCI (intraspinal QUIS)", "format": "in vivo", "source_text": "Male Sprague-Dawley (SD) adult rats at 3 months, weighing 220-250 g, were used (Charles River, Indianapolis, Ind.). Rats were kept under standard housing conditions (12:12 light and dark cycle) with food and water ad libitum for at least 1 week following arrival in an enclosed, pathogen-free animal facility. All experimental procedures were approved and carried out in accordance with the Guidelines of the US National Institutes of Health and Institutional Animal Care and Use Committee (IACUC) of the University of Kentucky.\nExcitotoxic SCI was produced by intraspinal injection of the glutamatergic AMPA/metabotropic receptor agonist quisqualic acid (QUIS) as previously described. Briefly, rats were anesthetized with a mixture of ketamine and xylazine (intraperitoneally, IP). Animals were placed in a stereotaxic unit and the spinal column immobilized with a vertebral clamp. One injection window for intraspinal injection was made by laminectomy between spinal segments T12-L1. Injections of 125 mM QUIS was made unilaterally at three levels of the cord by convection enhanced delivery. Injections, spaced 0.3 mm apart, were made at a depth of 1000 μm below the surface in segments T12-L1 between the dorsal root entry zone and the dorsal vein. These coordinates place injections in the center of the gray matter between spinal laminae IV-VI. The total volume of QUIS injected was 1.2 μl (0.4 μl each site, delivered over 4 minutes). Following injections, muscles were sutured over the laminectomy site, and the skin closed with wound clips.\nas §1, with “euthanized.” for “euthanized. FluBZ (10 mg/kg/day) or vehicle was intraperitoneally injected once daily for a period of 7 days post-injection of QUIS. The FluBZ or vehicle treatment began at 3 h post-QUIS injection. FluBZ (Sigma) was dissolved in 0.9% saline plus 0.01% Tween 80 (Vehicle).”\nAssessment of the spontaneous pain-related excessive grooming behavior was performed as described in previous studies. […] Quantitative analysis of spontaneous excessive grooming pain behavior consisted of the incidence, onset time, mean area of skin damage, and severity of overgrooming pain behaviors for all animals as previously described.\nData related to the onset time, area of grooming-induced skin damage, and immunofluorescent number of object and mean intensity are expressed as mean ±standard error of mean (SEM) and analyzed by using a commercially available computer program (StatView; SAS Institute, Inc, Cary, N.C.). […]"}, "[8]": {"test_system": "mitochondrial cyclin B1", "assay": "Immunofluorescence of mitochondrial cyclin B1 (cyclin B1/VDAC1 dual signal) in spinal dorsal horn after excitotoxic SCI", "format": "in vivo, rat", "conditions": "10 mg/kg/day for 7 days post-injury; 28 days following injury; vs vehicle, p<0.001", "source_text": "as §1, §2"}},
  "data": [
    {"smiles": "COC(=O)Nc1nc2ccc(Sc3ccccc3)cc2[nH]1", "note": "[FBZ, fenbendazole]", "values": [
      {"measurement": "bioavailability after oral treatment", "setting": "[1]", "result": "very low"},
      {"measurement": "solubility in aqueous systems", "setting": "[2]", "result": "poorly soluble"}
    ]},
    {"smiles": "COC(=O)Nc1nc2cc(C(=O)c3ccc(F)cc3)ccc2[nH]1", "note": "[FluBZ, Flubendazole]", "values": [
      {"measurement": "endosomal EEA1-NR1 fluorescent signals in the dorsal horn", "setting": "[3]", "result": "significantly suppressed"},
      {"measurement": "expression of acetyltransferase MEC-17 in the spinal dorsal horn", "setting": "[4]", "result": "significantly decreased"},
      {"measurement": "α-tubulin acetylation in the spinal dorsal horn", "setting": "[5]", "result": "significantly decreased"},
      {"measurement": "bioavailability after oral treatment", "setting": "[1]", "result": "very low"},
      {"measurement": "endosomal EEA1-pERK1/2 fluorescent binary number object, binary area fraction, binary area, and mean intensity in the dorsal horn", "setting": "[6]", "result": "significantly inhibited"},
      {"measurement": "solubility in aqueous systems", "setting": "[2]", "result": "poorly soluble"},
      {"measurement": "incidence of pain behavior", "setting": "[7]; 10 mg/kg/day IP for 7 days, starting 3 h post-injury, vehicle-treated control 75%", "result": 40, "unit": "%"},
      {"measurement": "onset of excessive grooming pain behaviors", "setting": "[7]; 10 mg/kg/day IP once daily for 7 days, starting 3 h post-QUIS, vehicle average onset 11 days, n=10", "result": "19 days after excitotoxic injury"},
      {"measurement": "size of the grooming area (skin damage)", "setting": "[7]; 10 mg/kg/day for one week post-excitotoxic injury, vs vehicle, p<0.001", "result": "significant reduction"},
      {"measurement": "severity of grooming class", "setting": "[7]; 10 mg/kg/day for one week post-excitotoxic injury, vs vehicle, p<0.01", "result": "significant reduction"},
      {"measurement": "mitochondrial cyclin b1 activity in the dorsal horn", "setting": "[8]", "result": "significantly reduced"}
    ]}
  ]
}
